# Structures can show the parent of a compound that is named as a salt. Where two headings read alike, the source gives them in different places.
# Legend:
# [1] = molecular target: T1, Alpha-2D Adrenergic Receptor (Rattus norvegicus, UniProt P22909); experiment: Alpha-2D Adrenergic Receptor Binding Assay (3H-para-aminoclonidine, rat cortex membranes); conditions: for % inh of α2D: cells printed with % sign, test concentration not given
# T1 construct: aliquots of the synaptic membrane fraction, the ligand ^3H-para-aminoclonidine and test drug; from tissue; host or cells: rat brain cortex, synaptic membrane fraction
# T1 sequence (P22909 1-465): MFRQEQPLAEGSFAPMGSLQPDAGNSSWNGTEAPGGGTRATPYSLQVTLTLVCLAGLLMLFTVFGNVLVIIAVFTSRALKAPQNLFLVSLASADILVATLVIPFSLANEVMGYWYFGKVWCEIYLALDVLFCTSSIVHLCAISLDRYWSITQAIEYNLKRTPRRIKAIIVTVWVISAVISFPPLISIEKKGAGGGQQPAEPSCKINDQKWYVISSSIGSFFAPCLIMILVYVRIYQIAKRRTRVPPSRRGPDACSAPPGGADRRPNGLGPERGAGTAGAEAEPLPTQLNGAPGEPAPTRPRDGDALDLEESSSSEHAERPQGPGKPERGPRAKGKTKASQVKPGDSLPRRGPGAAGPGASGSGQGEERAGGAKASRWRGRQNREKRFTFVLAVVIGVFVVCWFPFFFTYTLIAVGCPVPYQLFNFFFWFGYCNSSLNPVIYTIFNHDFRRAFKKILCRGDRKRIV
# Description: Alpha-2D Adrenergic Receptor Binding Assay
# Male, Wistar rats (150-250 g, VAF, Charles River, Kingston, N.Y.) are sacrificed by cervical dislocation and their brains removed and placed immediately in ice cold HEPES buffered sucrose. The cortex is dissected out and homogenized in 20 volumes of HEPES sucrose in a Teflon™-glass homogenizer. The homogenate is centrifuged at 1000 g for 10 min, and the resulting supernatant centrifuged at 42,000 g for 10 min. The resulting pellet is resuspended in 30 volumes of 3 mM potassium phosphate buffer, pH 7.5, preincubated at 25° C. for 30 min and recentrifuged. The resulting pellet is resuspended as described above and used for the receptor binding assay. […] The incubation is terminated by filtration of the tube contents through glass fiber filter sheets. Following washing of the sheets with 10 mM HEPES buffer, the adhering radioactivity is quantified by liquid scintillation spectrometry.
# Binding of the test drug to the receptor is determined by comparing the amount of radiolabeled ligand bound in control tubes without drug to the amount of radiolabeled ligand bound in the presence of the drug. Dose-response data are analyzed with LIGAND, a nonlinear curve fitting program designed specifically for the analysis of ligand binding data.
# [2] = system: mouse acetylcholine bromide-induced abdominal constriction; experiment: Mouse Acetylcholine Bromide-Induced Abdominal Constriction Assay (MAIT); format: in vivo; conditions: po; dose not given; acetylcholine bromide 5.5 mg/kg i.p. 30 minutes after drug
# Description: Mouse Acetylcholine Bromide-Induced Abdominal Constriction Assay (MAIT)
# The mouse acetylcholine bromide-induced abdominal constriction assay, as described by Collier et al. in Brit. J. Pharmacol. Chem. Ther., 32: 295-310, 1968, with minor modifications was used to assess analgesic potency of the compounds herein. The test drugs or appropriate vehicle were administered orally (p.o.) and 30 minutes later the animal received an intraperitoneal (i.p.) injection of 5.5 mg/kg acetylcholine bromide (Matheson, Coleman and Bell, East Rutherford, N.J.). The mice were then placed in groups of three into glass bell jars and observed for a ten minute observation period for the occurrence of an abdominal constriction response (defined as a wave of constriction and elongation passing caudally along the abdominal wall, accompanied by a twisting of the trunk and followed by extension of the hind limbs). The percent inhibition of this response to a nociceptive, stimulus (equated to % analgesia) was calculated as follows: The % Inhibition of response, i.e., % analgesia is equal to the difference between the number of control animals responding and the number of drug-treated animals responding times 100 divided by the number of control animals responding.
# At least 15 animals were used for control and in each of the drug treated groups. […] The ED50 values and their 95% fiducial limits were determined by a computer assisted probit analysis.
structure (smiles),measurement,setting,value
"Cc1ncccc1Cc1c[nH]cn1.Cl.Cl [Cp-1, 4-[(2-Methylpyrid-3-yl)methyl]-1H-imidazole Dihydrochloride]",melting point,,236 to 237.5 °C
same,Ki,[1],7.1 nM
same,% inh of MAIT,[2],93 po %
"Cc1ncccc1CCc1c[nH]cn1.Cl.Cl [Cp-2, 4-[(2-Methylpyrid-3-yl)ethyl]-1H-imidazole Dihydrochloride]",melting point,,258.5 to 263 °C
Cl.Cl.c1cncc(Cc2c[nH]cn2)c1 [Cp-3],% inh of α2D,[1],89%
same,% inh of MAIT,[2],47 po %
"Brc1cncc(Cc2c[nH]cn2)c1.O=C(O)/C=C/C(=O)O [Cp-4, 4-[(5-Bromopyridin-3-yl)methyl]-1H-imidazole Fumarate]",melting point,,139 to 145 °C
same,% inh of α2D,[1],83%
same,% inh of MAIT,[2],54 po %
"Brc1cncc(CCc2c[nH]cn2)c1.O=C(O)/C=C/C(=O)O [Cp-5, 4-[(5-Bromopyridin-3-yl)ethyl]-1H-imidazole Fumarate]",melting point,,156 to 158 °C
"Cl.c1ccc(Cc2c[nH]cn2)nc1 [Cp-6, 4-[(Pyridin-2-yl)methyl]-1H-imidazole Hydrochloride]",melting point,,197 to 200 °C
same,% inh of α2D,[1],83%
same,% inh of MAIT,[2],40 po %
"c1ccc(C(c2ccccn2)c2c[nH]cn2)cc1 (stereo not shown) [Cp-7, 4-[(Pyridin-2-yl)methylphenyl]-1H-imidazole]",Ki,"[1]; rat cortex synaptic membranes, ligand 3H-para-aminoclonidine, cells without % sign, read-out: α2D Ki",1000 nM
same,% inh of MAIT,[2],13 po %
c1ccc2nc(Cc3c[nH]cn3)ccc2c1 [Cp-9],Ki,[1],1.6 nM
same,% inh of MAIT,[2],20 po %
Cc1ncccc1C(C)c1c[nH]cn1 (stereo not shown) [Dihydrochloride],% inh of MAIT,[2],33 po %
CC(c1cncc(Br)c1)c1c[nH]cn1 (stereo not shown) [Fumarate],% inh of MAIT,[2],53 po %

# From patent publication US6465486B1 (Ortho-McNeil Pharmaceutical, Inc., priority 1999, dated 2002)
